Assay results from US20180238886A1, “METHODS FOR TREATING HEMATOLOGICAL CANCER AND THE USE OF BIOMARKERS AS A PREDICTOR FOR RESPONSIVENESS TO TREATMENT COMPOUNDS” (CELGENE CORPORATION, priority 2017, published 2018).

System: DLBCL patients
Assay: Clinical evaluation of gene classifiers in the Compound A cohort (progression free survival, objective response)
Type: in vivo, human
Set-up: Median Surv BM+ / Median Surv BM−: unit not given here
Settings: for Predictive Effects Cox HR: BM+ vs BM-; for Predictive Effects Cox HR / Median Surv BM− / Median Surv BM+: progression free survival, Cmp A-ST (N = 57); for Median Surv BM−: biomarker-negative patients; for Median Surv BM+: biomarker-positive patients; for CR BM+ / CR BM−: number of complete responses; for OR BM+ / OR BM−: number of objective responses
From the text: A proof of principle study was designed to translate the biomarker content and model to a clinically viable platform. The study consisted of four major steps: 1) development of a simplified linear model of the primary signal, 2) placing the model in the scale of a clinically viable technology (such as but not limited to, Nanostring nCounter or qRT-PCR), 3) establishing a threshold to replicate the output of the research assay, and 4) evaluating the simplified model and threshold in the Compound A cohort. The final model was applied to the Lenz microarray cohort and the Compound A Non-transformed cohort assayed by Nanostring nCounter. The classification of each sample was then combined with clinical data, and associations with clinical variables such as objective response and progression free survival were calculated. Results are shown as Kaplan-Meier plots in FIGS. 4A-4D. […] FIGS. 4A and 4C show the original 26 gene research classifier, and FIGS. 4B and 4D show the linear model that resulted from this bridging study. […] Importantly, the shapes of the curves for each group are very similar between the original 26 gene classifier and the bridged linear model. Additional results including biomarker prevalence, summary statistics from Cox Proportional Hazards models, objective response, and model details are listed in Table 6.

[1] = CG26 classifier, BM+ (25 patients)
[2] = CG26 classifier, BM− (32 patients)
[3] = M1 classifier, BM+ (22 patients)
[4] = M1 classifier, BM− (35 patients)

## Cc1nc2cccc(N)c2c(=O)n1C1CCC(=O)NC1=O (centres unmarked) [Compound A, 3-(5-amino-2-methyl-4-oxo-4H-quinazolin-3-yl)-piperidine-2,6-dione]
CG26 classifier
  Predictive Effects Cox HR: 0.31
  Median Surv BM−: 6.7
  Median Surv BM+: 35.9
M1 classifier
  Predictive Effects Cox HR: 0.32
  Median Surv BM−: 6.9
  Median Surv BM+: 37.9
[1]
  CR BM+: 4
  OR BM+: 12
[2]
  CR BM−: 2
  OR BM−: 5
[3]
  CR BM+: 4
  OR BM+: 10
[4]
  CR BM−: 2
  OR BM−: 7
